Laboratory results: article PMC9820430, “New Affordable Methods for Large-Scale Isolation of Major Olive Secoiridoids and Systematic Comparative Study of Their Antiproliferative/Cytotoxic Effect on Multiple Cancer Cell Lines of Different Cancer Origins” (International Journal of Molecular Sciences, 2022)
Like-named read-outs stand apart in the source and are kept apart here.

Columns and labels:
A2058 = assay: ATP-based luminescence cell viability assay (ViaLight), 72 h; set-up: species or system human; settings: for EC50: A2058, 72 h treatment, read-out: EC50 Values of Olive Oil Polyphenols; for Selectivity index SI (HaCaT): EC50 HaCaT / EC50 A2058; for Selectivity index SI (NHDF): EC50 NHDF / EC50 A2058
Method: (§1) The antiproliferative/cytotoxic effects of the selected OOPs on each cell line were assessed by measuring the cellular ATP levels after 72 h treatments using an ATP-based luminescence assay. This assay, initially developed as a tumor chemosensitivity assay, has shown considerable promise as a general in vitro toxicity assay due to its high sensitivity that allows the detection of a small number of cells. Consequently, it can be applied to both cancer cell lines and primary tissue cells. […] The EC50 values were calculated by nonlinear regression (curve fit) using a sigmoidal dose–response equation (Figure 2A and Figure S2).
(§2) The OOPs tested in this study were first dissolved in an appropriate DMSO volume such as to prepare a final stock solution of 50 mM, which was further used to prepare various compound concentrations in DMSO-based solutions. The final DMSO concentration in the cell culture was maintained constant in all treated groups of any given experiment and never exceeded the value of 0.2% (v/v). For the treatment experiments, cells were plated in 96-well culture plates, in 100 μL of complete medium at a seeding density of 5000–10,000 cells/well—depending on cells’ size and doubling time—and were allowed to adhere overnight (~16 h). The next day, 150 μL of complete medium was added to each well and the cells were treated with various concentrations of OOPs. Each concentration was tested in triplicate and was repeated 2–3 times. To prepare the final concentration solutions, 0.5 μL of a 500× stock of each tested compound in DMSO was added directly into each well in a final volume of 250 μL culture medium and was gently mixed by pipetting. Control wells were prepared under the same experimental conditions by adding only DMSO at a final concentration of 0.2% (v/v). Compounds were not renewed during the entire period of cell exposure. All cells were cultured at 37 °C in a 5% (v/v) CO2 for 24, 48 or 72 h.
(§3) Briefly, after the treatment with OOPs, the adapted medium was removed from the dish wells and the cells were washed twice with medium without FBS. Then, the C-lysis (LT27-076) was diluted in PBS (1:2) and a volume of 50 μL was added to each well. Cells were incubated with C-lysis for at least 10 min. Finally, an equal volume of lysed cells from each well and ATP monitoring reagent (AMR; LT27-212) was transferred to the wells of a white-walled illuminometer plate (Greiner bio-one; 655074). Cell viability was quantified by measuring luminescence using a multi-mode microplate reader Safire^2 Tecan (software Magellan V6.00 STD.2PC WIN.20000/XP).

AGS = assay: as above; set-up: species or system human; settings: 72 h treatment, read-out: EC50 Values of Olive Oil Polyphenols
Method: as §1, §2, §3

Caco-2 = assay: as above; set-up: species or system human; settings: 72 h treatment, read-out: EC50 Values of Olive Oil Polyphenols
Method: as §1, §2, §3

H1299 = assay: as above; set-up: species or system human; settings: for Selectivity index SI (MRC-5): EC50 MRC-5 / EC50 H1299; for EC50: H1299, 72 h treatment, read-out: EC50 Values of Olive Oil Polyphenols
Method: as §1, §2, §3

H1437 = assay: as above; set-up: species or system human; settings: for Selectivity index SI (MRC-5): EC50 MRC-5 / EC50 H1437; for EC50: H1437, 72 h treatment, read-out: EC50 Values of Olive Oil Polyphenols
Method: as §1, §2, §3

HT-29 = assay: as above; set-up: species or system human; settings: 72 h treatment, read-out: EC50 Values of Olive Oil Polyphenols
Method: as §1, §2, §3

HaCaT = assay: as above; set-up: species or system human; settings: HaCaT (immortal keratinocytes), 72 h treatment, read-out: EC50 Values of Olive Oil Polyphenols
Method: as §1, §2, §3

Hela = assay: as above; set-up: species or system human; settings: 72 h treatment, read-out: EC50 Values of Olive Oil Polyphenols
Method: as §1, §2, §3

HepG-2 = assay: as above; set-up: species or system human; settings: 72 h treatment, read-out: EC50 Values of Olive Oil Polyphenols
Method: as §1, §2, §3

Huh-7 = assay: as above; set-up: species or system human; settings: 72 h treatment, read-out: EC50 Values of Olive Oil Polyphenols
Method: as §1, §2, §3

MCF 10A = assay: as above; set-up: species or system human; settings: MCF 10A (non-tumorigenic epithelial), 72 h treatment, read-out: EC50 Values of Olive Oil Polyphenols
Method: as §1, §2, §3

MCF-7 = assay: as above; set-up: species or system human; settings: 72 h treatment, read-out: EC50 Values of Olive Oil Polyphenols
Method: as §1, §2, §3

MDA-MB 231 = assay: as above; set-up: species or system human; settings: for Selectivity index SI (MCF 10A): EC50 MCF 10A / EC50 MDA-MB 231; for EC50: MDA-MB 231, 72 h treatment, read-out: EC50 Values of Olive Oil Polyphenols
Method: as §1, §2, §3

ME-180 = assay: as above; set-up: species or system human; settings: 72 h treatment, read-out: EC50 Values of Olive Oil Polyphenols
Method: as §1, §2, §3

MKN-45 = assay: as above; set-up: species or system human; settings: 72 h treatment, read-out: EC50 Values of Olive Oil Polyphenols
Method: as §1, §2, §3

MRC-5 = assay: as above; set-up: species or system human; settings: MRC-5 (non cancer, lung), 72 h treatment, read-out: EC50 Values of Olive Oil Polyphenols
Method: as §1, §2, §3

PANC-1 = assay: as above; set-up: species or system human; settings: 72 h treatment, read-out: EC50 Values of Olive Oil Polyphenols
Method: as §1, §2, §3

SK-BR-3 = assay: as above; set-up: species or system human; settings: for Selectivity index SI (MCF 10A): EC50 MCF 10A / EC50 SK-BR-3; for EC50: SK-BR-3, 72 h treatment, read-out: EC50 Values of Olive Oil Polyphenols
Method: as §1, §2, §3

SK-MEL-28 = assay: as above; set-up: species or system human; settings: for Selectivity index SI (HaCaT): EC50 HaCaT / EC50 SK-MEL-28; for Selectivity index SI (NHDF): EC50 NHDF / EC50 SK-MEL-28; for EC50: SK-MEL-28, 72 h treatment, read-out: EC50 Values of Olive Oil Polyphenols
Method: as §1, §2, §3

MCF-10A cells = system: MCF-10A cells; set-up: method as in PMID 23403296, PMID 33117773, PMID 24849787, PMID 30964898; settings: cited from earlier work

Row | EC50 (AGS; Homo sapiens, 72 h) | EC50 (Caco-2; Homo sapiens, Caco-2, 72 h) | EC50 (H1437; Homo sapiens, NCI-H1437, 72 h) | EC50 (HT-29; Homo sapiens, HT-29, 72 h) | EC50 (Hela; Homo sapiens, HeLa, 72 h) | EC50 (Huh-7; Homo sapiens, Huh-7, 72 h) | EC50 (MCF-7; Homo sapiens, MCF7, 72 h) | EC50 (MDA-MB 231; Homo sapiens, MDA-MB-231, 72 h) | Compound | Selectivity index SI (HaCaT) (A2058) | Selectivity index SI (NHDF) (A2058) | Selectivity index SI (MRC-5) (H1299) | Selectivity index SI (MRC-5) (H1437) | Selectivity index SI (MCF 10A) (MDA-MB 231) | Selectivity index SI (MCF 10A) (SK-BR-3) | Selectivity index SI (HaCaT) (SK-MEL-28) | Selectivity index SI (NHDF) (SK-MEL-28) | EC50 (A2058; Homo sapiens, A2058, 72 h) | EC50 (HaCaT; Homo sapiens, HaCaT, 72 h) | EC50 (HepG-2; Homo sapiens, HepG2, 72 h) | EC50 (MCF 10A; Homo sapiens) | also measured
1 | – | – | – | – | – | – | – | – | ligstroside aglycone [4a,b] | 0.9 | 0.7 | 0.2 | 1.1 | 1.9 | 2.6 | 2.5 | 2.1 | – | – | – | – | EC50 (A2058): 63.6 ± 1.6 µM; EC50 (AGS): 48.5 ± 2.5 µM; EC50 (Caco-2): 24.4 ± 1.6 µM; EC50 (H1299): 83.3 ± 1.9 µM; EC50 (H1437): 11.6 ± 1.1 µM; EC50 (HT-29): 98.2 ± 8.4 µM; EC50 (HaCaT): 55.6 ± 1 µM; EC50 (Hela): 47.6 ± 1.8 µM; EC50 (HepG-2): 45.8 ± 3.4 µM; EC50 (Huh-7): 36 ± 0.9 µM; EC50 (MCF 10A): 55.8 ± 2.7 µM; EC50 (MCF-7): 61.8 ± 1.2 µM; EC50 (MDA-MB 231): 31.6 ± 2.7 µM; EC50 (ME-180): 51.1 ± 2.2 µM; EC50 (MKN-45): 24 ± 1.2 µM; EC50 (MRC-5): 13.2 ± 0.9 µM; EC50 (PANC-1): 45.7 ± 1.4 µM; EC50 (SK-BR-3): 21.5 ± 2.5 µM; EC50 (SK-MEL-28): 22.2 ± 1.2 µM; sensitivity of cells to treatment (MCF-10A cells; 50 μM): resistant
2 | 18.3 ± 1 µM | 33.4 µM | 26.5 ± 1.1 µM | 26.3 ± 2 µM | 44.6 ± 0.4 µM | 20.2 ± 1.5 µM | > 25 µM | 10.4 ± 0.8 µM | C/C=C(/C=O)[C@@H](CC=O)CC(=O)OCCc1ccc(O)cc1 [compound 1, oleocanthal] | – | – | – | – | – | – | – | – | 18.4 ± 0.4 µM | 19.3 ± 0.3 µM | 40 ± 5.3 µM | 7 ± 0.3 µM | EC50 (Caco-2): 34.3 ± 4.1 µM; EC50 (MCF-7): 24.6 ± 2.6 µM; EC50 (ME-180; Homo sapiens, ME-180, 72 h): 9.1 ± 0.3 µM; EC50 (MKN-45; Homo sapiens, MKN-45, 72 h): 10.2 ± 0.4 µM; EC50 (MRC-5; Homo sapiens, MRC5): 2 ± 0.1 µM; EC50 (PANC-1; Homo sapiens, PANC-1, 72 h): 14.9 ± 0.9 µM; EC50 (SK-BR-3; Homo sapiens, SK-BR-3, 72 h): 13 ± 0.6 µM; EC50 (SK-MEL-28; Homo sapiens, SK-MEL-28, 72 h): 10.4 ± 1.1 µM; sensitivity of cells to treatment (MCF-10A cells; 40 μM): resistant
3 | 35.9 ± 1.4 µM | 24.5 ± 0.9 µM | 11.9 ± 0.6 µM | 50.1 ± 1.5 µM | 27.6 ± 0.3 µM | 13 ± 0.1 µM | 32.2 ± 1.1 µM | 24.5 µM | COC(=O)C1=COC(C)[C@@H](C=O)[C@@H]1CC(=O)OCCc1ccc(O)c(O)c1 (mixture of isomers) [3a,b, oleuropein aglycone] | 1.0 | 1.1 | 0.4 | 0.7 | 0.4 | 0.5 | 2.4 | 2.8 | 37.2 ± 0.8 µM | 36.6 µM | 17.7 ± 0.5 µM | 9.5 ± 0.4 µM | EC50 (H1299; Homo sapiens, NCI-H1299): 24.1 ± 0.9 µM; EC50 (MDA-MB 231): 25.4 ± 0.8 µM; EC50 (ME-180; Homo sapiens, ME-180, 72 h): 25.5 ± 0.5 µM; EC50 (MKN-45; Homo sapiens, MKN-45, 72 h): 16.4 ± 1.6 µM; EC50 (MRC-5; Homo sapiens, MRC5): 8.6 ± 0.4 µM; EC50 (PANC-1; Homo sapiens, PANC-1, 72 h): 19.1 ± 0.6 µM; EC50 (SK-BR-3; Homo sapiens, SK-BR-3, 72 h): 17.7 ± 1.4 µM; EC50 (SK-MEL-28; Homo sapiens, SK-MEL-28, 72 h): 22.2 µM; EC50 (SK-MEL-28): 15.1 ± 0.9 µM; sensitivity of cells to treatment (MCF-10A cells; 150 μM): resistant
4 | 46.2 ± 2.3 µM | > 100 µM | 74.6 ± 2.1 µM | > 100 µM | 46.3 ± 4.9 µM | 49.6 ± 0.5 µM | > 100 µM | 37.7 ± 2.2 µM | C/C=C(/C=O)[C@@H](CC=O)CC(=O)OCCc1ccc(O)c(O)c1 [compound 2, oleacein] | 0.9 | 0.9 | 0.1 | 0.1 | 0.7 | 0.5 | 1.6 | 1.5 | 55.7 ± 3.4 µM | > 50 µM | 82.8 ± 0.7 µM | 24.7 ± 2.7 µM | EC50 (H1299; Homo sapiens, NCI-H1299): 61.7 ± 1.3 µM; EC50 (HaCaT): 51.8 ± 4.2 µM; EC50 (ME-180; Homo sapiens, ME-180, 72 h): 25.2 ± 0.2 µM; EC50 (MKN-45; Homo sapiens, MKN-45, 72 h): 25 ± 2.1 µM; EC50 (MRC-5; Homo sapiens, MRC5): 7 ± 0.9 µM; EC50 (PANC-1; Homo sapiens, PANC-1, 72 h): 30.9 ± 0.2 µM; EC50 (SK-BR-3; Homo sapiens, SK-BR-3, 72 h): 45.6 ± 2.2 µM; EC50 (SK-MEL-28; Homo sapiens, SK-MEL-28, 72 h): 33.4 ± 2.4 µM
